Holding throughout (format): cell-based
One assay has as its target T1, human PGD receptor (Homo sapiens, UniProt Q13258).
T1 sequence (Q13258 1-359): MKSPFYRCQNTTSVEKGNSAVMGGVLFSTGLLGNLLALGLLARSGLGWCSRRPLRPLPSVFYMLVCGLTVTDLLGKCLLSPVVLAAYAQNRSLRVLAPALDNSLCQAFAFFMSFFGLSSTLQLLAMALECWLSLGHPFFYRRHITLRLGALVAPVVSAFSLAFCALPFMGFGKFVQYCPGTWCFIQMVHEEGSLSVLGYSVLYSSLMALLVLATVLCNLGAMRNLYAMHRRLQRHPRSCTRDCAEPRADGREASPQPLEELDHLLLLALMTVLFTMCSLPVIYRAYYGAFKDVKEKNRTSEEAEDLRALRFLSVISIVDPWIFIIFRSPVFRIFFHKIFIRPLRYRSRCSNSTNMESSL
Put plainly: cAMP antagonism test on the human prostaglandin D receptor (HTRF cAMP detection). The conditions noted are these: selectivity towards hDP, IC50 measured by cAMP antagonism test. A digest of the protocol: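 Cells pre-mixed with cAMP-d2 were preincubated with compound (0.8 nM–16.5 μM) for 20 min at RT, then stimulated with 3× PGD2 solution (6 nM, in PBS-IBMX) for 30 min at RT. After lysis (20 min), HTRF read at 665/620 nm; antagonism seen as rise in FRET ratio.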
In general terms: TR-FRET usually uses a lanthanide donor and a delayed reading to cut background.

For assay [1], the target named is EP2 subtype of the human PGE2 receptor (Homo sapiens, UniProt P43116). Briefly: cAMP antagonism test on the human EP2 receptor (HTRF cAMP detection). The settings on record: hEP2 receptor, read-out: Antagonism hEP2 IC50. The gist of the method: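 Cells expressing human EP2 preincubated 20 min at RT with compound (0.8 nM–16.5 μM), then stimulated 60 min with PGE2 (3× solution 1.5 nM) in PBS-IBMX. After 20 min lysis, cAMP measured by competitive HTRF with cAMP-d2 and Eu cryptate anti-cAMP antibody (665/620 nm ratio).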
Chain of EP2 subtype of the human PGE2 receptor (P43116 whole entry): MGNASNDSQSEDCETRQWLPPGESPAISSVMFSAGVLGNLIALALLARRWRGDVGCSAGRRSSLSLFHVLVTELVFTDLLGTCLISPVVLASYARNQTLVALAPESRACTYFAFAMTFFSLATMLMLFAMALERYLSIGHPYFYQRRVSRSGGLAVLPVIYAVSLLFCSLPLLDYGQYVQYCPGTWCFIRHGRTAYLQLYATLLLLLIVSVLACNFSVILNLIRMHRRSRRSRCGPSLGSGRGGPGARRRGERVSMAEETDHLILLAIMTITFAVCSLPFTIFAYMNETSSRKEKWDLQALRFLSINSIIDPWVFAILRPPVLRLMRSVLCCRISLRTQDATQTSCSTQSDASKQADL

Assay [2] addresses EP4 subtype of the human PGE2 receptor (Homo sapiens, UniProt P35408). Briefly: cAMP antagonism test on the human EP4 receptor (HTRF cAMP detection). The conditions noted are these: selectivity towards hEP4, IC50 measured by cAMP antagonism test. A digest of the protocol:
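Cells expressing human EP4 preincubated 20 min at RT with compound (0.8 nM–16.5 μM), then stimulated with PGE2 (0.3 nM in 3× solution, with IBMX) 60 min at RT. After lysis, cAMP measured by HTRF competition (665/620 nm ratio); antagonism seen as rise in FRET signal.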

pIC50: −log10 of the molar value.

Chain of EP4 subtype of the human PGE2 receptor (P35408 whole entry): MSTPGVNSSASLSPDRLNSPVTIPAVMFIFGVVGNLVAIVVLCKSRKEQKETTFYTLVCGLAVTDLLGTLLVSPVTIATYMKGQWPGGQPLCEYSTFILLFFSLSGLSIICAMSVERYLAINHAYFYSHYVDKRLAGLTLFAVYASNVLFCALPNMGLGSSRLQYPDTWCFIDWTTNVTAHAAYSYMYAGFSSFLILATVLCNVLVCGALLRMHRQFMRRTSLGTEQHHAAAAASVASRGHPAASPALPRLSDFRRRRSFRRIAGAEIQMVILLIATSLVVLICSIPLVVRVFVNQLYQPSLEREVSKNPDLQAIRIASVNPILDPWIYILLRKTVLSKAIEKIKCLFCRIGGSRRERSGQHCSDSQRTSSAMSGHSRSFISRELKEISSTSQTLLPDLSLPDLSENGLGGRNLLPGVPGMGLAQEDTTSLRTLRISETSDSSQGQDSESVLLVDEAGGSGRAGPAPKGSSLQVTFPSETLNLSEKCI

Turning to `COC(C)CNC(=O)c1ccc2nn(CC3CN(C(=O)c4ccc(Oc5ccc(F)cc5)cc4)C3)cc2c1C` (racemic) [Example 147, (+/−)-2-({1-[4-(4-fluorophenoxy)benzoyl]azetidin-3-yl}methyl)-N-(2-methoxypropyl)-4-methyl-2H-indazol-5-carboxamide], the “Selectivity hEP2/hDP” value at human PGD receptor was “xxx (xxx > 100)”. Further, in assay [1], the pIC50 was 7.24. Moreover, the “Selectivity hEP2/hEP4” value in assay [2] was “xxx (xxx > 100)”.
Consider `Cc1c(C(=O)NCCN2CCOCC2)ccc2nn(CC3CCN(C(=O)c4ccc(Oc5ccc(F)cc5)cc4)CC3)cc12` [Example 67, 2-({1-[4-(4-fluoro-phenoxy)benzoyl]-piperidin-4-yl}-methyl)-4-methyl-N-(2-morpholinoethyl)-2H-indazol-5-carboxamide], for which the “Selectivity hEP2/hDP” value on human PGD receptor is “xx (xx: 10-100)”. Moreover, the pIC50 in assay [1] is 6.39. For the same compound, in assay [2], the “Selectivity hEP2/hEP4” value is given as “xx (xx: 10-100)”.
Consider `COCCNC(=O)c1ccc2nn(CC3CCN(C(=O)c4ccc(C(F)(F)F)cc4)CC3)cc2c1C` [Example 23, N-(2-methoxyethyl)-4-methyl-2-({1-[4-(trifluoromethyl)-benzoyl]piperidin-4-yl}methyl)-2H-indazol-5-carboxamide], for which the “Selectivity hEP2/hDP” value at human PGD receptor is reported as “xxx (xxx > 100)”. Further, in assay [1], the pIC50 is 7.79. Moreover, the “Selectivity hEP2/hEP4” value in assay [2] is “xxx (xxx > 100)”.
For `Cc1c(C(=O)NCC(F)(F)F)ccc2nn(CC3CCN(C(=O)c4cnc(-c5ccccc5)o4)CC3)cc12` [Example 300, 4-methyl-2-({1-[(2-phenyloxazol-5-yl)carbonyl]piperidin-4-yl}methyl)-N-(2,2,2-trifluoroethyl)-2H-indazol-5-carboxamide], the “Selectivity hEP2/hDP” value at human PGD receptor was “xxx (xxx > 100)”. Further, the pIC50 in assay [1] was 7.10. Also, the “Selectivity hEP2/hEP4” value in assay [2] is “xxx (xxx > 100)”.
Turning to `COCCNC(=O)c1ccc2nn(CC3CCN(C(=O)c4ccc(-c5ccc(C)c(C)c5)cc4F)CC3)cc2c1C` [Example 363, 2-({1-[(3-fluoro-3′,4′-dimethylbiphenyl-4-yl)carbonyl]piperidin-4-yl}methyl)-N-(2-methoxyethyl)-4-methyl-2H-indazol-5-carboxamide], the “Selectivity hEP2/hDP” value on human PGD receptor is on record as “xxx (xxx > 100)”. Moreover, the pIC50 in assay [1] was 8.26. Also, in assay [2], the “Selectivity hEP2/hEP4” value is “xxx (xxx > 100)”.
In the case of `COCCNC(=O)c1ccc2nn(CC3CCN(C(=O)c4ccc(Oc5ccccc5)cc4)CC3)cc2c1C` [Example 19, N-(2-methoxyethyl)-4-methyl-2-{[1-(4-phenoxybenzoyl)-piperidin-4-yl]-methyl}-2H-indazol-5-carboxamide], on human PGD receptor, the “Selectivity hEP2/hDP” value is “xxx (xxx > 100)”. In addition, the pIC50 in assay [1] was 8.07. For the same compound, the “Selectivity hEP2/hEP4” value in assay [2] is listed as “xxx (xxx > 100)”.
Consider `COCCNC(=O)c1ccc2nn(CC3CCN(C(=O)c4ccc(-c5ccc(C(F)(F)F)nc5)cc4)CC3)cc2c1C` [Example 374, N-(2-methoxyethyl)-4-methyl-2-[(1-{4-[6-(trifluoromethyl)pyridin-3-yl]-benzoyl}piperidin-4-yl)methyl]-2H-indazol-5-carboxamide], for which the “Selectivity hEP2/hDP” value at human PGD receptor is “xxx (xxx > 100)”. In addition, the pIC50 in assay [1] is 8.18. For the same compound, the “Selectivity hEP2/hEP4” value in assay [2] was “xxx (xxx > 100)”.
In the case of `COCCNC(=O)c1ccc2nn(CC3CCN(C(=O)c4ccc(Oc5ccc(C(F)(F)F)nc5)cc4)CC3)cc2c1C` [Example 349, N-(2-methoxyethyl)-4-methyl-2-{[1-(4-{[6-(trifluoromethyl)pyridin-3-yl]oxy}-benzoyl)piperidin-4-yl]methyl}-2H-indazol-5-carboxamide], at human PGD receptor, the “Selectivity hEP2/hDP” value is given as “xxx (xxx > 100)”. The pIC50 in assay [1] is 8.32. For the same compound, in assay [2], the “Selectivity hEP2/hEP4” value is given as “xxx (xxx > 100)”.
`COCCNC(=O)c1ccc2nn(CC3CCN(C(=O)c4ccc(-c5ncco5)cc4)CC3)cc2c1C` [Example 35, N-(2-methoxyethyl)-4-methyl-2-({1-[4-(oxazol-2-yl)-benzoyl]piperidin-4-yl}methyl)-2H-indazol-5-carboxamide]: on human PGD receptor, the “Selectivity hEP2/hDP” value is reported as “xxx (xxx > 100)”. Further, in assay [1], the pIC50 is 7.16. Moreover, the “Selectivity hEP2/hEP4” value in assay [2] is “xxx (xxx > 100)”.
`Cc1c(C(=O)NCC2CCCCO2)ccc2nn(CC3CCN(C(=O)c4ccc(Oc5ccc(C(F)(F)F)cc5)cc4)CC3)cc12` (racemic) [Example 248, (+/−)-4-methyl-N-(3,4,5,6-tetrahydro-2H-pyran-2-ylmethyl)-2-[(1-{4-[4-(trifluoromethyl)phenoxy]benzoyl}piperidin-4-yl)methyl]-2H-indazol-5-carboxamide]: the “Selectivity hEP2/hDP” value on human PGD receptor is “xxx (xxx > 100)”. Moreover, in assay [1], the pIC50 is 7.83. Also, the “Selectivity hEP2/hEP4” value in assay [2] was “xxx (xxx > 100)”.
As for `Cc1c(C(=O)NCCSC(F)(F)F)ccc2nn(CC3CN(C(=O)c4ccc(OC(F)(F)F)cc4)C3)cc12` [Example 133, 4-methyl-2-({1-[4-(trifluoromethoxy)benzoyl]azetidin-3-yl}methyl)-N-{2-[(trifluoromethyl)sulphanyl]ethyl}-2H-indazol-5-carboxamide], the “Selectivity hEP2/hDP” value at human PGD receptor was “xxx (xxx > 100)”. Further, the pIC50 in assay [1] is 7.38. In addition, in assay [2], the “Selectivity hEP2/hEP4” value was “xxx (xxx > 100)”.
On to `Cc1c(C(=O)NCCOC(F)(F)F)ccc2nn(CC3CN(C(=O)c4ccc(Cl)cc4)C3)cc12` [Example 152, 2-{[1-(4-chlorobenzoyl)azetidin-3-yl]methyl}-4-methyl-N-[2-(trifluoromethoxy)ethyl]-2H-indazol-5-carboxamide], for which, at human PGD receptor, the “Selectivity hEP2/hDP” value is on record as “xxx (xxx > 100)”. In addition, the pIC50 in assay [1] is 7.48. Also, the “Selectivity hEP2/hEP4” value in assay [2] is reported as “xxx (xxx > 100)”.
Regarding `COCCNC(=O)c1ccc2nn(CC3CCN(C(=O)c4nc5ccccc5o4)CC3)cc2c1C` [Example 340, 2-{[1-(benzoxazol-2-ylcarbonyl)piperidin-4-yl]methyl}-N-(2-methoxyethyl)-4-methyl-2H-indazol-5-carboxamide], on human PGD receptor, the “Selectivity hEP2/hDP” value is recorded as “xxx (xxx > 100)”. Moreover, in assay [1], the pIC50 is 7.70. The “Selectivity hEP2/hEP4” value in assay [2] was “xxx (xxx > 100)”.
`COc1ccc2c(c1)cc(C(=O)N1CC(Cn3cc4c(C)c(C(=O)NCC(F)(F)F)ccc4n3)C1)n2C` [Example 168, 2-({1-[(5-methoxy-1-methyl-1H-indol-2-yl)carbonyl]azetidin-3-yl}methyl)-4-methyl-N-(2,2,2-trifluoroethyl)-2H-indazol-5-carboxamide]: on human PGD receptor, the “Selectivity hEP2/hDP” value is listed as “xxx (xxx > 100)”. The pIC50 in assay [1] is 7.53. The “Selectivity hEP2/hEP4” value in assay [2] is reported as “xxx (xxx > 100)”.
For `Cc1cc2nn(CC3CN(C(=O)c4ccc(OC(F)(F)F)cc4)C3)cc2cc1C(=O)NCCSC(F)(F)F` [Example 194, 6-methyl-2-({1-[4-(trifluoromethoxy)benzoyl]azetidin-3-yl}methyl)-N-{2-[(trifluoromethyl)sulphanyl]ethyl}-2H-indazol-5-carboxamide], the “Selectivity hEP2/hDP” value on human PGD receptor is given as “xxx (xxx > 100)”. The pIC50 in assay [1] is 7.39. In addition, in assay [2], the “Selectivity hEP2/hEP4” value is on record as “xxx (xxx > 100)”.
With `Cc1cc2nn(CC3CN(C(=O)c4ccc(Oc5ccc(C(F)(F)F)cc5)cc4)C3)cc2cc1C(=O)NCC(F)(F)F` [Example 201, 6-methyl-N-(2,2,2-trifluoroethyl)-2-[(1-{4-[4-(trifluoromethyl)phenoxy]benzoyl}azetidin-3-yl)methyl]-2H-indazol-5-carboxamide], the “Selectivity hEP2/hDP” value on human PGD receptor is given as “xxx (xxx > 100)”. Besides, in assay [1], the negative-log IC50 (pIC50) was 7.60. Besides, the “Selectivity hEP2/hEP4” value in assay [2] is on record as “xxx (xxx > 100)”.

One may read the pIC50 as −log10 of the IC50, conventionally taken in molar units.

For the origin of these results see patent US9062041B2 (Bayer Intellectual Property GmbH, priority 2011, dated 2015).
